According to BigSolDB 2.1:

CC(C)(C)[C@H](O)[C@H](Cc1ccc(Cl)cc1)n1cncn1 (racemic)
solubility (mole fraction) (in 1,4-dioxane, 278.15 K): 0.0156 | solubility (mole fraction) (in 1,4-dioxane, 280.65 K): 0.0168 | solubility (mole fraction) (in 1,4-dioxane, 283.15 K): 0.0183 | solubility (mole fraction) (in 1,4-dioxane, 285.65 K): 0.0203 | solubility (mole fraction) (in 1,4-dioxane, 288.15 K): 0.0223 | solubility (mole fraction) (in 1,4-dioxane, 290.65 K): 0.0248 | solubility (mole fraction) (in 1,4-dioxane, 293.15 K): 0.0271 | solubility (mole fraction) (in 1,4-dioxane, 295.65 K): 0.0296 | solubility (mole fraction) (in 1,4-dioxane, 298.15 K): 0.0324 | solubility (mole fraction) (in 1,4-dioxane, 300.65 K): 0.0351 | solubility (mole fraction) (in 1,4-dioxane, 303.15 K): 0.0381 | solubility (mole fraction) (in 1,4-dioxane, 305.65 K): 0.0412 | solubility (mole fraction) (in 1,4-dioxane, 308.15 K): 0.044 | solubility (mole fraction) (in 1,4-dioxane, 310.65 K): 0.0475 | solubility (mole fraction) (in 1,4-dioxane, 313.15 K): 0.0512 | solubility (mole fraction) (in 1,4-dioxane, 315.65 K): 0.0551 | solubility (mole fraction) (in 1,4-dioxane, 318.15 K): 0.0593 | solubility (mole fraction) (in acetone, 278.15 K): 0.0135 | solubility (mole fraction) (in acetone, 280.65 K): 0.0145 | solubility (mole fraction) (in acetone, 283.15 K): 0.0155 | solubility (mole fraction) (in acetone, 285.65 K): 0.0167 | solubility (mole fraction) (in acetone, 288.15 K): 0.0181 | solubility (mole fraction) (in acetone, 290.65 K): 0.0194 | solubility (mole fraction) (in acetone, 293.15 K): 0.0209 | solubility (mole fraction) (in acetone, 295.65 K): 0.0223 | solubility (mole fraction) (in acetone, 298.15 K): 0.0239 | solubility (mole fraction) (in acetone, 300.65 K): 0.0253 | solubility (mole fraction) (in acetone, 303.15 K): 0.0269 | solubility (mole fraction) (in acetone, 305.65 K): 0.0284 | solubility (mole fraction) (in acetone, 308.15 K): 0.0301 | solubility (mole fraction) (in acetone, 310.65 K): 0.0317 | solubility (mole fraction) (in acetone, 313.15 K): 0.0335 | solubility (mole fraction) (in acetone, 315.65 K): 0.0353 | solubility (mole fraction) (in acetone, 318.15 K): 0.0372 | solubility (mole fraction) (in acetonitrile, 278.15 K): 0.00239 | solubility (mole fraction) (in acetonitrile, 280.65 K): 0.00267 | solubility (mole fraction) (in acetonitrile, 283.15 K): 0.00295 | solubility (mole fraction) (in acetonitrile, 285.65 K): 0.00331 | solubility (mole fraction) (in acetonitrile, 288.15 K): 0.00366 | solubility (mole fraction) (in acetonitrile, 290.65 K): 0.00405 | solubility (mole fraction) (in acetonitrile, 293.15 K): 0.00449 | solubility (mole fraction) (in acetonitrile, 295.65 K): 0.00495 | solubility (mole fraction) (in acetonitrile, 298.15 K): 0.00544 | solubility (mole fraction) (in acetonitrile, 300.65 K): 0.00596 | solubility (mole fraction) (in acetonitrile, 303.15 K): 0.00653 | solubility (mole fraction) (in acetonitrile, 305.65 K): 0.00709 | solubility (mole fraction) (in acetonitrile, 308.15 K): 0.00776 | solubility (mole fraction) (in acetonitrile, 310.65 K): 0.00846 | solubility (mole fraction) (in acetonitrile, 313.15 K): 0.00916 | solubility (mole fraction) (in acetonitrile, 315.65 K): 0.01 | solubility (mole fraction) (in acetonitrile, 318.15 K): 0.011 | solubility (mole fraction) (in ethanol, 278.15 K): 0.00749 | solubility (mole fraction) (in ethanol, 280.65 K): 0.0081 | solubility (mole fraction) (in ethanol, 283.15 K): 0.00885 | solubility (mole fraction) (in ethanol, 285.65 K): 0.00979 | solubility (mole fraction) (in ethanol, 288.15 K): 0.0107 | solubility (mole fraction) (in ethanol, 290.65 K): 0.0117 | solubility (mole fraction) (in ethanol, 293.15 K): 0.0128 | solubility (mole fraction) (in ethanol, 295.65 K): 0.0138 | solubility (mole fraction) (in ethanol, 298.15 K): 0.0149 | solubility (mole fraction) (in ethanol, 300.65 K): 0.016 | solubility (mole fraction) (in ethanol, 303.15 K): 0.0173 | solubility (mole fraction) (in ethanol, 305.65 K): 0.0185 | solubility (mole fraction) (in ethanol, 308.15 K): 0.02 | solubility (mole fraction) (in ethanol, 310.65 K): 0.0214 | solubility (mole fraction) (in ethanol, 313.15 K): 0.0229 | solubility (mole fraction) (in ethanol, 315.65 K): 0.0246 | solubility (mole fraction) (in ethanol, 318.15 K): 0.0265 | solubility (mole fraction) (in ethyl acetate, 278.15 K): 0.00783 | solubility (mole fraction) (in ethyl acetate, 280.65 K): 0.00895 | solubility (mole fraction) (in ethyl acetate, 283.15 K): 0.0104 | solubility (mole fraction) (in ethyl acetate, 285.65 K): 0.0118 | solubility (mole fraction) (in ethyl acetate, 288.15 K): 0.0133 | solubility (mole fraction) (in ethyl acetate, 290.65 K): 0.0153 | solubility (mole fraction) (in ethyl acetate, 293.15 K): 0.0175 | solubility (mole fraction) (in ethyl acetate, 295.65 K): 0.0201 | solubility (mole fraction) (in ethyl acetate, 298.15 K): 0.0228 | solubility (mole fraction) (in ethyl acetate, 300.65 K): 0.0255 | solubility (mole fraction) (in ethyl acetate, 303.15 K): 0.029 | solubility (mole fraction) (in ethyl acetate, 305.65 K): 0.0324 | solubility (mole fraction) (in ethyl acetate, 308.15 K): 0.0359 | solubility (mole fraction) (in ethyl acetate, 310.65 K): 0.0395 | solubility (mole fraction) (in ethyl acetate, 313.15 K): 0.0444 | solubility (mole fraction) (in ethyl acetate, 315.65 K): 0.0497 | solubility (mole fraction) (in ethyl acetate, 318.15 K): 0.0552 | solubility (mole fraction) (in isopropanol, 278.15 K): 0.00707 | solubility (mole fraction) (in isopropanol, 280.65 K): 0.00766 | solubility (mole fraction) (in isopropanol, 283.15 K): 0.00835 | solubility (mole fraction) (in isopropanol, 285.65 K): 0.00912 | solubility (mole fraction) (in isopropanol, 288.15 K): 0.00985 | solubility (mole fraction) (in isopropanol, 290.65 K): 0.0108 | solubility (mole fraction) (in isopropanol, 293.15 K): 0.0117 | solubility (mole fraction) (in isopropanol, 295.65 K): 0.0127 | solubility (mole fraction) (in isopropanol, 298.15 K): 0.0138 | solubility (mole fraction) (in isopropanol, 300.65 K): 0.0149 | solubility (mole fraction) (in isopropanol, 303.15 K): 0.0161 | solubility (mole fraction) (in isopropanol, 305.65 K): 0.0173 | solubility (mole fraction) (in isopropanol, 308.15 K): 0.0185 | solubility (mole fraction) (in isopropanol, 310.65 K): 0.0197 | solubility (mole fraction) (in isopropanol, 313.15 K): 0.021 | solubility (mole fraction) (in isopropanol, 315.65 K): 0.0225 | solubility (mole fraction) (in isopropanol, 318.15 K): 0.0242 | solubility (mole fraction) (in n-butanol, 278.15 K): 0.0134 | solubility (mole fraction) (in n-butanol, 280.65 K): 0.0141 | solubility (mole fraction) (in n-butanol, 283.15 K): 0.0151 | solubility (mole fraction) (in n-butanol, 285.65 K): 0.0162 | solubility (mole fraction) (in n-butanol, 288.15 K): 0.0173 | solubility (mole fraction) (in n-butanol, 290.65 K): 0.0184 | solubility (mole fraction) (in n-butanol, 293.15 K): 0.0198 | solubility (mole fraction) (in n-butanol, 295.65 K): 0.0211 | solubility (mole fraction) (in n-butanol, 298.15 K): 0.0224 | solubility (mole fraction) (in n-butanol, 300.65 K): 0.0238 | solubility (mole fraction) (in n-butanol, 303.15 K): 0.0251 | solubility (mole fraction) (in n-butanol, 305.65 K): 0.0266 | solubility (mole fraction) (in n-butanol, 308.15 K): 0.0279 | solubility (mole fraction) (in n-butanol, 310.65 K): 0.0295 | solubility (mole fraction) (in n-butanol, 313.15 K): 0.0308 | solubility (mole fraction) (in n-butanol, 315.65 K): 0.0324 | solubility (mole fraction) (in n-butanol, 318.15 K): 0.0341 | solubility (mole fraction) (in n-propanol, 278.15 K): 0.0124 | solubility (mole fraction) (in n-propanol, 280.65 K): 0.0131 | solubility (mole fraction) (in n-propanol, 283.15 K): 0.0139 | solubility (mole fraction) (in n-propanol, 285.65 K): 0.0146 | solubility (mole fraction) (in n-propanol, 288.15 K): 0.0155 | solubility (mole fraction) (in n-propanol, 290.65 K): 0.0163 | solubility (mole fraction) (in n-propanol, 293.15 K): 0.0172 | solubility (mole fraction) (in n-propanol, 295.65 K): 0.0182 | solubility (mole fraction) (in n-propanol, 298.15 K): 0.0192 | solubility (mole fraction) (in n-propanol, 300.65 K): 0.0203 | solubility (mole fraction) (in n-propanol, 303.15 K): 0.0215 | solubility (mole fraction) (in n-propanol, 305.65 K): 0.0228 | solubility (mole fraction) (in n-propanol, 308.15 K): 0.0241 | solubility (mole fraction) (in n-propanol, 310.65 K): 0.0253 | solubility (mole fraction) (in n-propanol, 313.15 K): 0.0265 | solubility (mole fraction) (in n-propanol, 315.65 K): 0.0278 | solubility (mole fraction) (in n-propanol, 318.15 K): 0.0291 | solubility (mole fraction) (in toluene, 278.15 K): 0.0416 | solubility (mole fraction) (in toluene, 280.65 K): 0.0426 | solubility (mole fraction) (in toluene, 283.15 K): 0.0437 | solubility (mole fraction) (in toluene, 285.65 K): 0.045 | solubility (mole fraction) (in toluene, 288.15 K): 0.0462 | solubility (mole fraction) (in toluene, 290.65 K): 0.0473 | solubility (mole fraction) (in toluene, 293.15 K): 0.0484 | solubility (mole fraction) (in toluene, 295.65 K): 0.0496 | solubility (mole fraction) (in toluene, 298.15 K): 0.0508 | solubility (mole fraction) (in toluene, 300.65 K): 0.0521 | solubility (mole fraction) (in toluene, 303.15 K): 0.0533 | solubility (mole fraction) (in toluene, 305.65 K): 0.0546 | solubility (mole fraction) (in toluene, 308.15 K): 0.0557 | solubility (mole fraction) (in toluene, 310.65 K): 0.057 | solubility (mole fraction) (in toluene, 313.15 K): 0.0584 | solubility (mole fraction) (in toluene, 315.65 K): 0.0597 | solubility (mole fraction) (in toluene, 318.15 K): 0.061
